From PubChem BioAssay AID651677 (The Scripps Research Institute Molecular Screening Center, 2012)
pIC50: −log10 of the molar value. Values joined by “and” are separate entries in the source; they are usually repeats but may differ in a detail not shown here. Equal entries are not always repeated. Active and inactive are the calls of the source. The rule behind the calls is not given here.

Biological target: Perilipin-5 (Homo sapiens) + 1-acylglycerol-3-phosphate O-acyltransferase ABHD5 (Homo sapiens) (UniProt Q00G26+Q8WTS1)
Experiment: ABHD5-PLIN5 interaction inhibitors, dose response, biochemical, luminescence (AID 651677)

Perilipin-5 (Homo sapiens) + 1-acylglycerol-3-phosphate O-acyltransferase ABHD5 (Homo sapiens), sequence (Q00G26 whole entry, looked up): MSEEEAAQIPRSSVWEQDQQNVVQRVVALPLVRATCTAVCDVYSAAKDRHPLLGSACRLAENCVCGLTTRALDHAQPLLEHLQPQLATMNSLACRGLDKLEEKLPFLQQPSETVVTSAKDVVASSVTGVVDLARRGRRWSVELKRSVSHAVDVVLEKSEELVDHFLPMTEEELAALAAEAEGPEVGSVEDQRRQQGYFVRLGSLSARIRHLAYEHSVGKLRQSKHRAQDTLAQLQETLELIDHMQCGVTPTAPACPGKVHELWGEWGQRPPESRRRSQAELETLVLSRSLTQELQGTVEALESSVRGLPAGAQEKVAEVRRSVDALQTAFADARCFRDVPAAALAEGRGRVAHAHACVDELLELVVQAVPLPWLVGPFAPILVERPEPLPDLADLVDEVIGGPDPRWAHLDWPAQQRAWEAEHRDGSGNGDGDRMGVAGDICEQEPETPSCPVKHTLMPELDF
Perilipin-5 (Homo sapiens) + 1-acylglycerol-3-phosphate O-acyltransferase ABHD5 (Homo sapiens), sequence (Q8WTS1 whole entry, looked up): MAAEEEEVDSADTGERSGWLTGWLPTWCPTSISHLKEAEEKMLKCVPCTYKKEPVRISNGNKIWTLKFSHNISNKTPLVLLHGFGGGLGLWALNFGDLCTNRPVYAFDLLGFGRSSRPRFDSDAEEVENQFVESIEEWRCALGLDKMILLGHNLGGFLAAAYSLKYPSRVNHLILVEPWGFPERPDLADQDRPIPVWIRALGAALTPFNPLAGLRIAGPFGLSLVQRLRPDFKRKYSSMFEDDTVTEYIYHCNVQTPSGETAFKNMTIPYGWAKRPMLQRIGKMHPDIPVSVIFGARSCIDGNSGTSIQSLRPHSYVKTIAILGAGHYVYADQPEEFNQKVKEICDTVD

Compound | IC50 | pIC50
O=C(Cn1c(=O)n(Cc2ccco2)c(=O)c2c3c(sc21)CCCC3)Nc1ccccc1 | inactive | 
CCCCNC(=O)Nc1ccc2c(c1)N(C)C(=O)c1ccccc1S2 |  | 5.39
O=C(NC1CCCCC1)C(c1ccnc2ccccc12)n1c(=O)c(-c2ccco2)nc2ccccc21 (centres undefined) |  | 5.78
O=C(NC1CCCCC1)C(c1ccc(-c2ccccc2)cc1)n1c(=O)c(-c2ccco2)nc2ccccc21 (centres undefined) |  | 5.81
CCOc1cc(N)c(Cl)cc1C(=O)NCC1CN(Cc2ccc(F)cc2)CCO1 (centres undefined) |  | 5.60
COc1ccc(NC(=O)C(c2ccccc2)n2c(=O)c(-c3ccco3)nc3ccccc32)cc1 (centres undefined) |  | 5.06
O=C(/C=C/c1ccccc1)CC(O)(c1ccccc1)C(F)(F)C(F)F (centres undefined) |  | 5.94
COc1ccc(C(C(=O)NCc2ccccc2)n2c(=O)c(-c3ccco3)nc3ccccc32)cc1 (centres undefined) |  | 5.65
COc1ccccc1C=CC(=O)C=Cc1ccccc1OC |  | 5.32
Cc1ccc(SC2=C(Sc3ccc(C)cc3)C(=O)c3ccccc3C2=O)cc1 |  | 6.00
O=C(NCc1ccccc1)C(c1ccccc1)n1c(=O)c(-c2ccco2)nc2ccccc21 (centres undefined) |  | 5.55
O=C(NC1CCCCC1)C(c1ccc(C(F)(F)F)cc1)n1c(=O)c(-c2ccco2)nc2ccccc21 (centres undefined) |  | 5.90
COc1ccc(NC(=S)N(CCCN2CCCC2)Cc2cccn2Cc2ccc(Cl)cc2)cc1Cl | inactive | 
CCc1nnc(NC(=O)c2nc(S(=O)(=O)Cc3cccc(C)c3)ncc2Cl)s1 |  | 5.48
CCCc1nnc(NC(=O)c2nc(S(=O)(=O)Cc3cccc(C)c3)ncc2Cl)s1 |  | 5.47
Cc1ccc(O)c(C(=O)C=Cc2ccccc2)c1 |  | 5.50
CCN1C/C(=C/c2ccc(OC)c(O)c2)C(=O)/C(=C/c2ccc(OC)c(O)c2)C1 |  | 5.25
CC(=O)OCC1=C(C(=O)O)N2C(=O)C(NC(=O)CCn3nc(C(F)(F)F)c(Br)c3C3CC3)C2SC1 (centres undefined) |  | 5.28
COc1ccc(C)c2sc(N(CCN(C)C)C(=O)/C=C/c3cccs3)nc12 |  | 5.00
CN1CCC(=C2c3ccccc3CC(=O)c3sccc32)CC1 | inactive | 
CC(=O)Nc1ccc(S(=O)(=O)N2c3ccc(F)cc3CCC2C)cc1 (centres undefined) | inactive | 
COc1ccc(NC(=O)C(c2ccnc3ccccc23)n2c(=O)c(-c3ccco3)nc3ccccc32)cc1 (centres undefined) |  | 5.09
CS(=O)(=O)c1ccc(C(=O)NCCN2C(=O)S/C(=C\c3cccnc3)C2=O)cc1[N+](=O)[O-] |  | 5.44
Cc1ccc(NC(=O)CSc2nnc(-c3ccco3)c(-c3ccco3)n2)cc1 |  | 5.93
CC1=CC2C(C(O)CC3(C)C2CC(C)C32OCOC23COCO3)C2(C)C/C(=C\O)C(=O)C=C12 (centres undefined) |  | 5.49

Compound | IC50 | pIC50
CC(C)c1nnc(NC(=O)c2nc(S(=O)(=O)Cc3ccc(F)cc3)ncc2Cl)s1 |  | 5.71
CCCCOC(=O)Nc1cc(C(=O)OC)ccc1C(=O)OC |  | 5.17
O=C1CC(c2ccc(Cl)cc2)Oc2ccc(Cl)cc21 (centres undefined) |  | 5.55
CC1=CC(C)(C)Nc2ccc(OC(=O)CN3C(=O)CCC3=O)cc21 |  | 5.66
CCC(C)NC(=O)Nc1ccc2c(c1)N(C)C(=O)c1ccccc1S2 (centres undefined) |  | 5.30
CN(C)CCCN(C(=O)CCc1ccccc1)c1nc2ccc(Br)cc2s1 |  | 5.10
NC(=NCCCCCCN=C(N)/N=C(\N)Nc1ccc(Cl)cc1)/N=C(\N)Nc1ccc(Cl)cc1 |  | 5.42 and 5.78
CN(C)CCCNC(=O)c1ccc(-c2nc(-c3ccc(Cl)cc3)cs2)cc1 | inactive | 
COc1ccc(OCc2cn(CC(=O)c3ccc(O)cc3)nn2)cc1 |  | 5.51
CCC1(C)N=C(c2ccc3c(c2)OCO3)CC(c2ccccc2O)N1 (centres undefined) |  | 5.80
CCOC(=O)c1c(NC(=O)/C=C/C(=O)O)sc(C)c1-c1ccc(C(C)(C)C)cc1 |  | 5.17
O=C(/C=C/Sc1ccccc1)c1ccc(Cl)cc1 |  | 5.47
CC(C)(C)NC(=O)C(c1ccc(C#N)cc1)n1c(=O)c(-c2ccco2)nc2ccccc21 (centres undefined) |  | 5.73
O=C1NC(=O)N(Cc2ccccc2)C(=O)/C1=C\C=C\c1ccco1 |  | 5.88
O=c1c(-c2ccco2)nc2ccccc2n1C(CCc1ccccc1)c1nc2ccccc2[nH]1 (centres undefined) |  | 5.80
Cc1cc(C)c(NC(=O)CN2CCN3CCCC3C2)c(C)c1 (centres undefined) |  | 5.03
Cc1ccc(S(=O)(=O)N2C[C@@]3(O)Cn4c(=O)ccc(=O)n4C[C@@]3(OC(=O)NCC3CCCCC3)C2)cc1 |  | 5.40
CN(C)CCOc1ccc(/C(=C(/CCCl)c2ccccc2)c2ccccc2)cc1 |  | 5.86
N#Cc1ccc(C(C(=O)NC2CCCCC2)n2c(=O)c(-c3ccco3)nc3ccccc32)cc1 (centres undefined) |  | 5.73
C#CCN(C[C@@H]1[C@@H](OC(=O)NCc2ccc(OC)c(OC)c2)[C@@H](OC(=O)NCc2ccc(OC)c(OC)c2)Cn2c(=O)ccc(=O)n21)S(=O)(=O)c1ccc(C)cc1 |  | 5.28
COc1ccc(C(C(=O)NC2CCCCC2)n2c(=O)c(-c3ccco3)nc3ccccc32)cc1 (centres undefined) |  | 5.94
CC(C)(C)NC(=O)C(c1ccc(-c2ccccc2)cc1)n1c(=O)c(-c2ccco2)nc2ccccc21 (centres undefined) |  | 5.89
COc1ccc(/C=C\C(=O)CC(O)(c2ccccc2)C(F)(F)F)cc1 (centres undefined) |  | 5.54
COC(=O)c1ccc(Cn2cc(/C=C\[N+](=O)[O-])c3ccccc32)o1 |  | 5.20
Cc1cccc(C)c1NC(=O)C(c1ccc(-c2ccccc2)cc1)n1c(=O)c(-c2ccco2)nc2ccccc21 (centres undefined) |  | 5.88

Compound | IC50 | pIC50
CC(C)(C)NC(=O)C(c1ccncc1)n1c(=O)c(-c2ccco2)nc2ccccc21 (centres undefined) |  | 5.44
Cc1ccc(/C(O)=C2/C(=O)C(=O)OC2c2ccc(Cl)cc2)cc1 (centres undefined) |  | 5.01
CCN(CC)CCC(C)OC(c1ccccc1)c1ccccc1 (centres undefined) |  | 5.47
COCCNC(=O)/C(C#N)=C/c1cccc(/C=C(\C#N)C(=O)NCCOC)c1 |  | 6.14
C#CCN(C[C@@H]1[C@@H](OC(=O)Nc2cccs2)[C@@H](OC(=O)Nc2cccs2)Cn2c(=O)ccc(=O)n21)S(=O)(=O)c1ccc(C)cc1 |  | 5.75
CCCCCNC(=O)C(c1cccc2ccccc12)n1c(=O)c(-c2ccco2)nc2ccccc21 (centres undefined) |  | 5.80
CCOc1cc(/C=C2\CCC/C(=C\c3cc(Cl)c(O)c(OCC)c3)C2=O)cc(Cl)c1O |  | 5.38
COc1ccccc1-c1cc(C(=O)NC2CCN(C)CC2)c2ccc(Cl)c(C)c2n1 |  | 5.14
CC(=O)Oc1c(Cl)c(N2CCOCC2)c(OC(C)=O)c2ccccc12 |  | 5.37
CCc1nnc(NC(=O)c2nc(S(=O)(=O)Cc3ccccc3)ncc2Cl)s1 |  | 5.38
CCN(CC)CCOCCOC(=O)C1(c2ccccc2)CCCC1 |  | 5.69
NC(=O)CCN1CCN(CCOC2Cc3cc(Cl)ccc3Sc3ccccc32)CC1 (centres undefined) | inactive | 
O=C(NC1CCCCC1)C(c1ccccc1)n1c(=O)c(-c2ccco2)nc2ccccc21 (centres undefined) |  | 6.17
O=C(NCc1ccccc1)C(c1ccc(C(F)(F)F)cc1)n1c(=O)c(-c2ccco2)nc2ccccc21 (centres undefined) |  | 5.88
O=C(NCc1ccccc1)C(c1cc2ccccc2o1)n1c(=O)c(-c2ccco2)nc2ccccc21 (centres undefined) |  | 5.62
CCCCCNC(=O)C(C1CC1)n1c(=O)c(-c2ccco2)nc2ccccc21 (centres undefined) |  | 5.01
O=C(CF)N(O)c1ccc(C=Cc2ccccc2)cc1 | > 39.9 µM (inactive) | 
Cc1ccc(/C=C/C(=O)c2cc(Br)ccc2OC(=O)c2ccco2)cc1 |  | 6.04
COc1ccc(NC(=O)C(c2ccc(OC)cc2)n2c(=O)c(-c3ccco3)nc3ccccc32)cc1 (centres undefined) |  | 5.21
CSc1nnc(NC(=O)c2nc(S(=O)(=O)Cc3cccc(C)c3)ncc2Cl)s1 |  | 5.57
O=C(C[n+]1cccc(CNC(=O)c2ccc(OC(F)F)cc2)c1)Nc1cccc(C(F)(F)F)c1 | inactive | 
Cc1cc(C)c(C(CC(=O)c2cccs2)C(C#N)C#N)c(C)c1 (centres undefined) |  | 5.07
Cc1cccc(C)c1NC(=O)C(c1ccnc2ccccc12)n1c(=O)c(-c2ccco2)nc2ccccc21 (centres undefined) |  | 5.45
O=CC1=C(c2ccccc2)Oc2ccccc2O1 |  | 5.45
Cc1ccc(C(=O)c2c(C)oc3c2C(=O)C(=O)c2ccccc2-3)cc1 |  | 5.42

Compound | IC50 | pIC50
Cc1cccc(C)c1NC(=O)C(c1cccc2ccccc12)n1c(=O)c(-c2ccco2)nc2ccccc21 (centres undefined) |  | 5.74
CCCCCNC(=O)C(c1ccc(C(F)(F)F)cc1)n1c(=O)c(-c2ccco2)nc2ccccc21 (centres undefined) |  | 5.74
CCN1/C(=C/C=C/c2oc3ccc(-c4ccccc4)cc3[n+]2CC)Oc2ccc(-c3ccccc3)cc21 |  | 5.99
O=C1/C(=C/c2cccnc2)CC/C1=C\c1cccnc1 |  | 5.48
O=C(NC1CCCCC1)C(C1CC1)n1c(=O)c(-c2ccco2)nc2ccccc21 (centres undefined) |  | 5.62
CN1C(=O)/C(=C/C=C/c2ccco2)C(=O)NC1=S |  | 5.53
Cc1ccc(C(=O)/C=C/c2cc(Br)cc(Br)c2O)o1 |  | 5.26
CCCC(=O)NC(c1cccc([N+](=O)[O-])c1)c1ccc2cccnc2c1O (centres undefined) | > 39.8 µM (inactive) | 
O=C(NCc1ccccc1)C(c1cccc2ccccc12)n1c(=O)c(-c2ccco2)nc2ccccc21 (centres undefined) |  | 5.65
CN(C)CCCN(C(=O)CCc1ccccc1)c1nc2ccc(Cl)cc2s1 |  | 5.13
CCSc1nnc(NC(=O)c2nc(S(=O)(=O)Cc3ccc(F)cc3)ncc2Cl)s1 |  | 5.63
CCOC(=O)/C(=C\c1ccc(Cl)cc1)c1nc2sc(C)c(C)c2c(=O)[nH]1 |  | 6.12
O=[N+]([O-])/C=C/c1cn(Cc2ccc(F)cc2)c2ccccc12 |  | 5.47
CCOC(=O)C1CCCN(C(=O)c2cc(Nc3ccc(OC)cc3)nc3ccccc23)C1 (centres undefined) | inactive | 
O=c1nc(/C=C/c2ccc(Cl)cc2Cl)cc(C(F)(F)F)[nH]1 |  | 5.46
O=C(NCc1ccccc1)C(c1ccc(-c2ccccc2)cc1)n1c(=O)c(-c2ccco2)nc2ccccc21 (centres undefined) |  | 5.57
CCC(=O)Nc1cccc(C(=O)/C=C/c2ccccc2)c1 |  | 5.57
N#Cc1ccc(C(C(=O)Nc2ccc3c(c2)OCCO3)n2c(=O)c(-c3ccco3)nc3ccccc32)cc1 (centres undefined) |  | 5.14
CC1CCN(S(=O)(=O)c2ccc(NC(=O)Cc3ccccc3)cc2)CC1 |  | 5.02
CC(C)(C)NC(=O)C(c1cc2ccccc2o1)n1c(=O)c(-c2ccco2)nc2ccccc21 (centres undefined) |  | 5.81
COCCN(CCOC)c1nc(N)c2c(N)nc3c(c2c1C#N)CC(=O)N3Cc1ccc(Cl)cc1 | inactive | 
CC(=O)Oc1c(Br)cc(N(C(C)=O)S(=O)(=O)c2ccccc2)c2ccccc12 |  | 5.19
C#CCN(C[C@@H]1[C@@H](OC(=O)NCc2ccccc2F)[C@@H](OC(=O)NCc2ccccc2F)Cn2c(=O)ccc(=O)n21)S(=O)(=O)c1ccc(C)cc1 |  | 5.30
CCCCCNC(=O)C(c1cc2ccccc2o1)n1c(=O)c(-c2ccco2)nc2ccccc21 (centres undefined) |  | 5.94
